Like-named read-outs stand apart in the source and are kept apart here.
Tested on: HBsAg secretion in HepG2.2.15 cells
Experiment: HBsAg assay (chemiluminescence immunoassay of secreted HBsAg in culture supernatant)
Format: cell-based, HBV
In short: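 HepG2.2.15 cells (1.5×10^4/well, duplicate) treated with three-fold compound dilutions, 1% DMSO final, DMSO as no-drug control. Secreted HBsAg in supernatant quantified semi-quantitatively by chemiluminescence immunoassay; IC50 is concentration reducing HBsAg 50% versus no-drug control.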

[1] = Hepatitis B virus, HepG2.2.15, HepG2.2.15 cells, concentration at which HBsAg secretion was reduced by 50% compared to the no drug control, read-out: IC50 (HBsAg assay)
[2] = HepG2.2.15 cells, concentration at which HBsAg secretion was reduced by 50% compared to the no drug control, read-out: IC50 (HBsAg assay)

SMILES	IC50 [1] [nM]	IC50 [2] [nM]	other results
COc1c(Cl)c(F)cc(N2CCc3nc(-c4ncccn4)ncc3C2C)c1Cl (single isomer, unassigned; (+)) [Example 124, (+)-6-(2,4-dichloro-5-fluoro-3-methoxy-phenyl)-5-methyl-2-pyrimidin-2-yl-7,8-dihydro-5H-pyrido[4,3-d]pyrimidine]	1250		
CC1c2cnc(-c3ncccn3)nc2CCN1c1cc(F)c(F)c(OCCCS(C)(=O)=O)c1 (centres unmarked) [Example 47, 6-[3,4-difluoro-5-(3-methylsulfonylpropoxy)phenyl]-5-methyl-2-pyrimidin-2-yl-7,8-dihydro-5H-pyrido[4,3-d]pyrimidine]		36	
CC1c2cnc(-c3ncccn3)nc2CCN1c1cc(OCC2CC2)cc(F)n1 (centres unmarked) [Example 152, 6-[4-(cyclopropylmethoxy)-6-fluoro-2-pyridyl]-5-methyl-2-pyrimidin-2-yl-7,8-dihydro-5H-pyrido[4,3-d]pyrimidine]	11		
CC1c2cnc(-c3ccccn3)nc2CCN1c1cc(F)c(F)c(OCCCN2CCOCC2)c1 (centres unmarked) [Example 32, 4-[3-[2,3-difluoro-5-[5-methyl-2-(2-pyridyl)-7,8-dihydro-5H-pyrido[4,3-d]pyrimidin-6-yl]phenoxy]propyl]morpholine]	74		
CC1c2cnc(-c3ncccn3)nc2CCN1c1cc(F)c(F)c(OCCCN2CCN(S(C)(=O)=O)CC2)c1 (centres unmarked) [Example 110, 6-[3,4-difluoro-5-[3-(4-methylsulfonylpiperazin-1-yl)propoxy]phenyl]-5-methyl-2-pyrimidin-2-yl-7,8-dihydro-5H-pyrido[4,3-d]pyrimidine]	79		
CCC1c2cnc(-c3ccccn3)nc2CCN1c1ccc(S(C)(=O)=O)cc1 (centres unmarked) [Example 4, 5-ethyl-6-(4-methylsulfonylphenyl)-2-(2-pyridyl)-7,8-dihydro-5H-pyrido[4,3-d]pyrimidine]	1920		
CC1c2cnc(-c3ncccn3)nc2CCN1c1cc(F)c(F)c(OCCCC(N)=O)c1 (centres unmarked) [Example 52, 4-[2,3-difluoro-5-(5-methyl-2-pyrimidin-2-yl-7,8-dihydro-5H-pyrido[4,3-d]pyrimidin-6-yl)phenoxy]butanamide]	110		
COc1cc(F)nc(N2CCc3nc(-c4ncccn4)ncc3C2C)c1 (centres unmarked) [Example 127, 6-(6-Fluoro-4-methoxy-2-pyridyl)-5-methyl-2-pyrimidin-2-yl-7,8-dihydro-5H-pyrido[4,3-d]pyrimidine]		24	
COCCS(=O)(=O)NCCCOc1cc(N2CCc3nc(-c4ncccn4)ncc3C2C)cc(F)c1F (centres unmarked) [Example 94, N-[3-[2,3-difluoro-5-(5-methyl-2-pyrimidin-2-yl-7,8-dihydro-5H-pyrido[4,3-d]pyrimidin-6-yl)phenoxy]propyl]-2-methoxy-ethanesulfonamide]	70		
CC1c2cnc(-c3ncccn3)nc2CCN1c1cc(O)c(F)c(F)c1 (single isomer, unassigned; (-)) [Example 45, (−)-2,3-difluoro-5-(5-methyl-2-pyrimidin-2-yl-7,8-dihydro-5H-pyrido[4,3-d]pyrimidin-6-yl)phenol]		176	
CC1c2cnc(-c3ncccn3)nc2CCN1c1cc(N(C)C)cc(F)n1 (single isomer, unassigned; (+)) [Example 206, (+)-2-fluoro-N,N-dimethyl-6-[5-methyl-2-pyrimidin-2-yl-7,8-dihydro-5H-pyrido[4,3-d]pyrimidin-6-yl]pyridin-4-amine]		285	
CC1c2cnc(-c3ncccn3)nc2CCN1c1cc(F)c(F)c(OCCCN)c1 (centres unmarked) [Example 91, 3-[2,3-difluoro-5-(5-methyl-2-pyrimidin-2-yl-7,8-dihydro-5H-pyrido[4,3-d]pyrimidin-6-yl)phenoxy]propan-1-amine]	483		
CC1c2cnc(-c3ncccn3)nc2CCN1c1cc(O)c(F)c(F)c1 (centres unmarked) [Example 44, 2,3-difluoro-5-(5-methyl-2-pyrimidin-2-yl-7,8-dihydro-5H-pyrido[4,3-d]pyrimidin-6-yl)phenol]		494	
COc1cc(N2CCc3nc(-c4ccccn4)ncc3C2C[N+](=O)[O-])cc(F)c1F (centres unmarked) [Example 39, 6-(3,4-difluoro-5-methoxy-phenyl)-5-(nitromethyl)-2-(2-pyridyl)-7,8-dihydro-5H-pyrido[4,3-d]pyrimidine]	1340		
CC1c2cnc(-c3ncccn3)nc2CCN1c1cc(OCC2CSC2)cc(F)n1 (centres unmarked) [Example 194, 6-[6-fluoro-4-(thietan-3-ylmethoxy)-2-pyridyl]-5-methyl-2-pyrimidin-2-yl-7,8-dihydro-5H-pyrido[4,3-d]pyrimidine]	43		
COc1cc(N2CCc3nc(-c4ccccn4)ncc3C2CCO)cc(F)c1F (centres unmarked) [Example 38, 2-[6-(3,4-difluoro-5-methoxy-phenyl)-2-(2-pyridyl)-7,8-dihydro-5H-pyrido[4,3-d]pyrimidin-5-yl]ethanol]	3360		

SMILES	IC50 [1] [nM]	IC50 [2] [nM]	other results
COc1cc(N2CCc3nc(-c4ccccn4)ncc3C2C)cc(F)c1F (single isomer, unassigned; (+)) [Example 6, (+)-6-(3,4-difluoro-5-methoxy-phenyl)-5-methyl-2-(2-pyridyl)-7,8-dihydro-5H-pyrido[4,3-d]pyrimidine]		8070	
CC1c2cnc(-c3ccccn3)nc2CCN1c1ccc([N+](=O)[O-])cc1 (single isomer, unassigned; (+)) [Example 2, (+)-5-methyl-6-(4-nitrophenyl)-2-(2-pyridyl)-7,8-dihydro-5H-pyrido[4,3-d]pyrimidine]		2060	
CC1c2cnc(-c3ncccn3)nc2CCN1c1cc(OCC2CCOC2)cc(F)n1 (centres unmarked) [Example 154, 6-[6-fluoro-4-(tetrahydrofuran-3-ylmethoxy)-2-pyridyl]-5-methyl-2-pyrimidin-2-yl-7,8-dihydro-5H-pyrido[4,3-d]pyrimidine]	7		
CC1c2cnc(-c3ncccn3)nc2CCN1c1cc(F)c(F)c(OCC2CCOC2)c1 (centres unmarked) [Example 75, 6-[3,4-difluoro-5-(tetrahydrofuran-3-ylmethoxy)phenyl]-5-methyl-2-pyrimidin-2-yl-7,8-dihydro-5H-pyrido[4,3-d]pyrimidine]	21		
COCCCNC(=O)c1cc(F)cc(N2CCc3nc(-c4ncccn4)ncc3C2C)c1 (centres unmarked) [Example 177, 3-fluoro-N-(3-methoxypropyl)-5-(5-methyl-2-pyrimidin-2-yl-7,8-dihydro-5H-pyrido[4,3-d]pyrimidin-6-yl)benzamide]	290		
CC1c2cnc(-c3ncccn3)nc2CCN1c1cc(OCCCCC(N)=O)cc(F)n1 (single isomer, unassigned; (-)) [Example 158, (−)-5-[[2-fluoro-6-[5-methyl-2-pyrimidin-2-yl-7,8-dihydro-5H-pyrido[4,3-d]pyrimidin-6-yl]-4-pyridyl]oxy]pentanamide]			IC50 (Hepatitis B virus, HepG2.2.15, read-out: IC50 (HBsAg assay)): 16 nM
COC(=O)CCCCCCCOc1cc(F)nc(N2CCc3nc(-c4ncccn4)ncc3C2C)c1 (centres unmarked) [Example 167, methyl 8-[[2-fluoro-6-(5-methyl-2-pyrimidin-2-yl-7,8-dihydro-5H-pyrido[4,3-d]pyrimidin-6-yl)-4-pyridyl]oxy]octanoate]	26		
CCCC1c2cnc(-c3ccccn3)nc2CCN1c1cc(F)c(F)c(OC)c1 (single isomer, unassigned; (+)) [Example 13, (+)-6-(3,4-difluoro-5-methoxy-phenyl)-5-propyl-2-(2-pyridyl)-7,8-dihydro-5H-pyrido[4,3-d]pyrimidine]		14400	
CC1c2cnc(-c3ncccn3)nc2CCN1c1cc(F)c(F)c(OCCCCC(=O)O)c1 (centres unmarked) [Example 63, 5-[2,3-difluoro-5-(5-methyl-2-pyrimidin-2-yl-7,8-dihydro-5H-pyrido[4,3-d]pyrimidin-6-yl)phenoxy]pentanoic acid]	447		
CC1c2cnc(-c3ncccn3)nc2CCN1c1cc(F)c(F)c(OCC2CCOCC2)c1 (centres unmarked) [Example 89, 6-[3,4-difluoro-5-(tetrahydropyran-4-ylmethoxy)phenyl]-5-methyl-2-pyrimidin-2-yl-7,8-dihydro-5H-pyrido[4,3-d]pyrimidine]	21		
CC1c2cnc(-c3ncccn3)nc2CCN1c1cc(F)c(F)c(OCCCCCCN)c1 (single isomer, unassigned; (+)) [Example 61, (+)-6-[2,3-difluoro-5-[5-methyl-2-pyrimidin-2-yl-7,8-dihydro-5H-pyrido[4,3-d]pyrimidin-6-yl]phenoxy]hexan-1-amine]		3320	
CC1c2cnc(-c3ncccn3)nc2CCN1c1cc(F)c(F)c(OCCCCCNC(=O)OC(C)(C)C)c1 (centres unmarked) [Example 56, tert-butyl N-[5-[2,3-difluoro-5-(5-methyl-2-pyrimidin-2-yl-7,8-dihydro-5H-pyrido[4,3-d]pyrimidin-6-yl)phenoxy]pentyl]carbamate]	55		
CC1c2cnc(-c3ccccn3)nc2CCN1c1cc(N2CCOCC2)cc(F)n1 (centres unmarked) [Example 220, 4-[2-fluoro-6-[5-methyl-2-(2-pyridyl)-7,8-dihydro-5H-pyrido[4,3-d]pyrimidin-6-yl]-4-pyridyl]morpholine]	21		
CC1c2cnc(-c3ncccn3)nc2CCN1c1cc(F)c(F)c(OCCC2CCOC2)c1 (centres unmarked) [Example 114, 6-[3,4-difluoro-5-(2-tetrahydrofuran-3-ylethoxy)phenyl]-5-methyl-2-pyrimidin-2-yl-7,8-dihydro-5H-pyrido[4,3-d]pyrimidine]	18		
CC1c2cnc(-c3ccccn3)nc2CCN1c1cc(F)c(F)c(OCCCNS(C)(=O)=O)c1 (centres unmarked) [Example 35, N-[3-[2,3-difluoro-5-[5-methyl-2-(2-pyridyl)-7,8-dihydro-5H-pyrido[4,3-d]pyrimidin-6-yl]phenoxy]propyl]methanesulfonamide]	46		
CC1c2cnc(-c3ccccn3)nc2CCN1c1ccc([N+](=O)[O-])cc1 (centres unmarked) [Example 1, 5-methyl-6-(4-nitrophenyl)-2-(2-pyridyl)-7,8-dihydro-5H-pyrido[4,3-d]pyrimidine]		186	
